Measured values as given in patent US8911713B2, “Method for preventing or treating skin tumor” (Galderma Research & Development, priority 2010, dated 2014).
Where two headings read alike, the source gives them in different places.

System: UV-induced skin tumor
Settings: for Tumor Yield (≧1 mm): average number of tumors per survivor; for Median Week to Tumor (≧1 mm): 100 μL/mouse, 5 days/wk, + 600 RBU/week UVR, 40 weeks + 12 weeks observation
Protocol: Albino hairless SKH1-hr mice (36/sex/group) were treated for 40 weeks with UVR and brimonidine gel or vehicle according to the design in table 11. […] Topical treatments were performed approximately one hour before UVR on Monday, Wednesday and Friday of each week and approximately one hour after UVR Tuesday and Thursday of each week.

SMILES: Brc1c(NC2=NCCN2)ccc2nccnc12 [Brimonidine, (5-Bromo-quinoxalin-6-yl)-(4,5-dihydro-1H-imidazol-2-yl)-amine]
- Reduction of tumor yield (≧1 mm) compared to the vehicle group (0.18% topical + 600 RBU/week UVR): 1.7 fold
- Members of the group that acquired one or more qualifying tumors (≧1 mm) within the 52-week study period (1% topical + 600 RBU/week UVR): less than one-half
- Reduction of tumor yield (≧1 mm) compared to the vehicle group (1% topical + 600 RBU/week UVR): 4.7 fold
- Members of the group that acquired one or more qualifying tumors (≧1 mm) within the 52-week study period (2% topical + 600 RBU/week UVR): less than one-half
- Reduction of tumor yield (≧1 mm) compared to the vehicle group (2% topical + 600 RBU/week UVR): 8.1 fold
- Tumor Yield (≧1 mm) (Group 2: 0.18% topical + 600 RBU/week UVR): 2.40 tumors per survivor
- Median Week to Tumor (≧1 mm) (Group 2: 0.18% topical): 48 Week
- Tumor Yield (≧1 mm) (Group 3: 1% topical + 600 RBU/week UVR): 0.85 tumors per survivor
- Median Week to Tumor (≧1 mm) (Group 3: 1% topical): >52 Week
- Tumor Yield (≧1 mm) (Group 4: 2% topical + 600 RBU/week UVR): 0.49 tumors per survivor
- Median Week to Tumor (≧1 mm) (Group 4: 2% topical): >52 Week
- UV-induced skin tumor formation (topical 0.18%, 1% and 2% + 600 RBU/week UVR): dose-dependent delay
- Sizes of tumors (tumor prevalence by size, FIG. 1) (with increasing concentration, topical, sexes combined): the sizes of tumors were also reduced
